Experiment [1] addresses T1, ALK (Homo sapiens, UniProt Q9UM73).
T1 construct: host or cells: baculovirus expression system
Kind of experiment: ALK Kinase Assay (ELISA/TRF, PLC-γ substrate). It is filed as biochemical. Conditions: read-out: ALK Potency. The essentials:
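Read-out is time-resolved fluorescence from a Eu-N1-labeled PT66 antibody that binds phosphorylated PLC-γ, the substrate coated at 10 μg/mL in TBS. ALK at 30 ng/ml starts the reaction, which runs 15 minutes at 37° C.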
In general terms: ELISA stands for enzyme-linked immunosorbent assay.

In experiment [2] the target is T2, JAK2 (Homo sapiens, UniProt O60674).
T2 construct: host or cells: baculovirus expression system
The experiment can be described thus: Recombinant Human JAK2 Kinase Assay (TRF). It counts as biochemical. The note with it: read-out: JAK2 Potency. The essentials:
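Kinase activity of baculovirus-expressed JAK2 is followed on a surface-immobilised biotinylated peptide, with the reaction run for 20 min at room temperature in buffer containing 0.2 μM ATP and manganese. Phosphorylation is read with Eu-N1 PY100 antibody.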

Where [3] appears, read: ALK kinase inhibition, 1 μM ATP.
[4] abbreviates: JAK2 kinase inhibition, 0.2 μM ATP.

pIC50: −log10 of the molar value. Where two headings read alike, the source gives them in different places.

T1 sequence (Q9UM73 19-1620): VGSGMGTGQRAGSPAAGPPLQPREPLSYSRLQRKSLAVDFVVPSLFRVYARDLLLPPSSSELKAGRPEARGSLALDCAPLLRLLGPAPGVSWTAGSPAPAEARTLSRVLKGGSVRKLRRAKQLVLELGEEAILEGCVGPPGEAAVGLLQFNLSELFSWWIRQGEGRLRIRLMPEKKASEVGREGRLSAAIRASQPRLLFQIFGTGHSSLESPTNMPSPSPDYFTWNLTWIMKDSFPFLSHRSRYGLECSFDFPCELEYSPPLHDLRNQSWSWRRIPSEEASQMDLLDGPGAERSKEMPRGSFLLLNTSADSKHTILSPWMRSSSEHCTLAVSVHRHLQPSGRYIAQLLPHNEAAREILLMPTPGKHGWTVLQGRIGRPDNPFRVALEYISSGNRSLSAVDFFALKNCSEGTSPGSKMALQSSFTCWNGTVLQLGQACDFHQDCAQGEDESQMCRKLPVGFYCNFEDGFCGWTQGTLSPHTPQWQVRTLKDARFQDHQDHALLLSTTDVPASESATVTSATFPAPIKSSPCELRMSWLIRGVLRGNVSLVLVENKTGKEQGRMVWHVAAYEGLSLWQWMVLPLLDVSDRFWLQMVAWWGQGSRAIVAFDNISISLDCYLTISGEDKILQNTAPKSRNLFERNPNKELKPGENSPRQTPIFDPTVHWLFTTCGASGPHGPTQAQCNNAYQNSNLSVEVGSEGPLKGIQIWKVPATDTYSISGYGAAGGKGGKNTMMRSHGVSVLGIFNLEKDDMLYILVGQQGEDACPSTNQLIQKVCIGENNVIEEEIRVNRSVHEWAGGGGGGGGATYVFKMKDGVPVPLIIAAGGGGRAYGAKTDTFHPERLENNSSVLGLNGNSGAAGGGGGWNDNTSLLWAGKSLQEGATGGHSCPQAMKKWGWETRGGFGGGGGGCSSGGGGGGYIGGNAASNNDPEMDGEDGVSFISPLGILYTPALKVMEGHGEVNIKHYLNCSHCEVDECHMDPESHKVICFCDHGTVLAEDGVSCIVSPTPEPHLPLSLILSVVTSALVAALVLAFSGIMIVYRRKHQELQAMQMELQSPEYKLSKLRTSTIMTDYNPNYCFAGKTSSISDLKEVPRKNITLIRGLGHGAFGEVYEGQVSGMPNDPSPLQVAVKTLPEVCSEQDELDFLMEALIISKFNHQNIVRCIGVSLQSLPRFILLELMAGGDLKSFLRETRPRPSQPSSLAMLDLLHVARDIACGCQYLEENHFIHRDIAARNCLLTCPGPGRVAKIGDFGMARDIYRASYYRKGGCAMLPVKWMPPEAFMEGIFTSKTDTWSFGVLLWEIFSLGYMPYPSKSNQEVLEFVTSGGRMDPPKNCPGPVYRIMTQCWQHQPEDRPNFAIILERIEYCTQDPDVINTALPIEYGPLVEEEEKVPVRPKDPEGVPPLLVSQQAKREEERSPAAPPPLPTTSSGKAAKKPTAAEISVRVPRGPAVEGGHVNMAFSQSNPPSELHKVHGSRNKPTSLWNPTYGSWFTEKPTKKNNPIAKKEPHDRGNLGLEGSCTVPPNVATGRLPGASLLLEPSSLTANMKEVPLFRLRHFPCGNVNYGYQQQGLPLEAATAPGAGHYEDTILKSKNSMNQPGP
T2 sequence (O60674 whole entry): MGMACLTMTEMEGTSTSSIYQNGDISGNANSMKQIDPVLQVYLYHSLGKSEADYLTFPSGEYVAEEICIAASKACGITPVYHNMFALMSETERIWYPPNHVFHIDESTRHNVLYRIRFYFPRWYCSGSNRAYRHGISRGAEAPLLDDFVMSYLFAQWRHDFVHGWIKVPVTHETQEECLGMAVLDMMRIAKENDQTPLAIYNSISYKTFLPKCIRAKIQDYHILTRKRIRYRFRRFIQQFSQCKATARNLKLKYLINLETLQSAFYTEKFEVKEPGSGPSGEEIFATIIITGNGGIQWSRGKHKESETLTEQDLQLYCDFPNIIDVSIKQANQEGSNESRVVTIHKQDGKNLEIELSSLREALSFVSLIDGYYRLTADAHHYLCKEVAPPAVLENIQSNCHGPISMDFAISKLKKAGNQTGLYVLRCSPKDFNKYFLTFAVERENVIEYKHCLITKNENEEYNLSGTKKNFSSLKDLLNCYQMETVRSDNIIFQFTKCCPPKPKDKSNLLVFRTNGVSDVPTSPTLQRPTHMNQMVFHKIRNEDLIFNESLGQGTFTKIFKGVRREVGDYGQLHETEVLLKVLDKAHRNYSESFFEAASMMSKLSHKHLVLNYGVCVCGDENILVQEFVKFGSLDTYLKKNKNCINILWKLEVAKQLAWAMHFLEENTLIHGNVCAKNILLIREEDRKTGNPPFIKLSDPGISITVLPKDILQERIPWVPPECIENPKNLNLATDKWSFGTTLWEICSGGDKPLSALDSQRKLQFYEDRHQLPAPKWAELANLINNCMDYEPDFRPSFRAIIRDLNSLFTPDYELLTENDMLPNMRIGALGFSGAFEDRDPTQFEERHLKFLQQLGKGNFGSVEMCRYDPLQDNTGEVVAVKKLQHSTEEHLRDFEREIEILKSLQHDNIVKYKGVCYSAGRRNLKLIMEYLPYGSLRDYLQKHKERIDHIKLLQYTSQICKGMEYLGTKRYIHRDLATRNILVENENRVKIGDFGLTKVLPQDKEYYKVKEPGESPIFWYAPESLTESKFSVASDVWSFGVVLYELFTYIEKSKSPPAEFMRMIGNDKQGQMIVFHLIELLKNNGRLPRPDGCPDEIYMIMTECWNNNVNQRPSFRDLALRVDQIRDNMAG

For the compound `CS(=O)(=O)c1ccc(-c2ccc3cnc(Nc4ccc5[nH]c(=O)[nH]c5c4)nn23)cc1` [Example 1303, 5-[7-(4-Methanesulfonyl-phenyl)-pyrrolo[2,1-f][1,2,4]triazin-2-ylamino]-1,3-dihydro-benzimidazol-2-one], the pIC50 in experiment [1] (setting [3]) is 5.00 to 6.00; in experiment [2] (setting [4]), more than 7.00.
For the compound `CN1CCC(c2ccc(Nc3ncc4ccc(-c5ccccc5OCC(N)=O)n4n3)cc2)CC1` [Example 1409, 2-(2-{2-[4-(1-Methyl-piperidin-4-yl)-phenylamino]-pyrrolo[2,1-f][1,2,4]triazin-7-yl}-phenoxy)-acetamide], the pIC50 is 6.00 to 7.00 in experiment [1] (ALK Kinase Inhibition) and more than 7.00 in experiment [2] (JAK2 Kinase Inhibition).
The matching figures for `FC(F)(F)c1cc(-c2ccc3cnc(Nc4ccc(N5CCOCC5)cc4)nn23)ccc1Cl` [Example 58, [7-(4-Chloro-3-trifluoromethyl-phenyl)-pyrrolo[2,1-f][1,2,4]triazin-2-yl]-(4-morpholin-4-yl-phenyl)-amine]: 5.00 to 6.00 and more than 7.00.
The matching figures for `Clc1cccc(-c2ccc3cnc(Nc4ccc(N5CCOCC5)nc4)nn23)c1` [Example 79, [7-(3-Chloro-phenyl)-pyrrolo[2,1-f][1,2,4]triazin-2-yl]-(6-morpholin-4-yl-pyridin-3-yl)-amine]: less than 5.00 and more than 7.00.
Regarding `COc1cc(C2CCN(C[C@@H](O)CO)CC2)c(F)cc1Nc1ncc2ccc(-c3ccccc3N(C)S(C)(=O)=O)n2n1` [Example 551, N-[2-(2-{4-[1-((R)-2,3-Dihydroxy-propyl)-piperidin-4-yl]-5-fluoro-2-methoxy-phenylamino}-pyrrolo[2,1-f][1,2,4]triazin-7-yl)-phenyl]-N-methyl-methanesulfonamide], the pIC50 in experiment [1] (setting [3]) is more than 7.00; in experiment [2] (setting [4]), 5.00 to 6.00.
Consider `COc1ccc(Cl)cc1-c1ccc2cnc(Nc3cccc(C(N)=O)c3)nn12` [Example 166, 3-[7-(5-Chloro-2-methoxy-phenyl)-pyrrolo[2,1-f][1,2,4]triazin-2-ylamino]-benzamide], for which the pIC50 was 5.00 to 6.00 in experiment [1] (ALK Kinase Inhibition) and more than 7.00 in experiment [2] (JAK2 Kinase Inhibition).
Consider `CN1CCN(c2ncc3ccc(-c4ccccc4N(C)S(C)(=O)=O)n3n2)CC1` [Example 1250, N-Methyl-N-{2-[2-(4-methyl-piperazin-1-yl)-pyrrolo[2,1-f][1,2,4]triazin-7-yl]-phenyl}-methanesulfonamide], for which the pIC50 in experiment [1] (setting [3]) is 5.00 to 6.00; in experiment [2] (setting [4]), 6.00 to 7.00.
Taken in the same sequence, the figures for `CN(c1ccccc1-c1ccc2cnc(Nc3ccc4c(c3)C(C)(C)C(=O)N4)nn12)S(C)(=O)=O` [Example 632, N-{2-[2-(3,3-Dimethyl-2-oxo-2,3-dihydro-1H-indol-5-ylamino)-pyrrolo[2,1-f][1,2,4]triazin-7-yl]phenyl}N-methyl-methanesulfonamide] were more than 7.00 and more than 7.00.
Taken in the same sequence, the figures for “N-[2-(2-{4-[4-(2-Hydroxy-ethyl)-piperazin-1-yl]-phenylamino}-pyrrolo[2,1-f][1,2,4]triazin-7-yl)-phenyl]-N-methyl-methanesulfonamide [Example 1171]” were more than 7.00 and more than 7.00.
The matching figures for `COc1ccc(-c2ccc3cnc(Nc4ccc5nc(CO)[nH]c5c4)nn23)cn1` [Example 1069, {6-[7-(6-Methoxy-pyridin-3-yl)-pyrrolo[2,1-f][1,2,4]triazin-2-ylamino]-1H-benzoimidazol-2-yl}-methanol]: 5.00 to 6.00 and more than 7.00.
`CN1CCOCc2cc(Nc3ncc4ccc(-c5ccccc5N(C)S(C)(=O)=O)n4n3)ccc21` [Example 616, N-Methyl-N-{2-[2-(1-methyl-1,2,3,5-tetrahydro-benzo[e][1,4]oxazepin-7-ylamino)-pyrrolo[2,1-f][1,2,4]triazin-7-yl]-phenyl}-methanesulfonamide]: the pIC50 was 6.00 to 7.00 in experiment [1] (setting [3]) and more than 7.00 in experiment [2] (setting [4]).
The matching figures for `N#CCCc1cccc(-c2ccc3cnc(Nc4ccc5c(c4)CCC(N4CCOCC4)CC5)nn23)c1` (stereo not shown) [Example 1148, 3-{3-[2-(7-Morpholin-4-yl-6,7,8,9-tetrahydro-5H-benzocyclohepten-2-ylamino)-pyrrolo[2,1-f][1,2,4]triazin-7-yl]-phenyl}-propionitrile]: more than 7.00 and more than 7.00.
`COc1cc(CN2CCC(O)CC2)ccc1Nc1ncc2ccc(-c3ccccc3N(C)S(C)(=O)=O)n2n1` [Example 1234, N-(2-{2-[4-(4-Hydroxy-piperidin-1-ylmethyl)-2-methoxy-phenylamino]-pyrrolo[2,1-f][1,2,4]triazin-7-yl}-phenyl)-N-methyl-methanesulfonamide]: the pIC50 was more than 7.00 in experiment [1] (setting [3]) and 5.00 to 6.00 in experiment [2] (setting [4]).
Taken in the same sequence, the figures for `COc1cc(N2CCN(C[C@H](C)O)CC2)ccc1Nc1ncc2ccc(-c3cc(Cl)ccc3OC)n2n1` [Example 755, (S)-1-(4-{4-[7-(5-Chloro-2-methoxy-phenyl)-pyrrolo[2,1-f][1,2,4]triazin-2-ylamino]-3-methoxy-phenyl}-piperazin-1-yl)-propan-2-ol] were more than 7.00 and more than 7.00.
The matching figures for `COc1cc(C2CCN(CC(N)=O)CC2)ccc1Nc1ncc2c(O)cc(-c3ccccc3N(C)S(C)(=O)=O)n2n1` [Example 1259, 2-[4-(4-{5-Hydroxy-7-[2-(methanesulfonyl-methyl-amino)-phenyl]-pyrrolo[2,1-f][1,2,4]triazin-2-ylamino}-3-methoxy-phenyl)-piperidin-1-yl]-acetamide]: more than 7.00 and 5.00 to 6.00.
For the compound `COc1cc(Nc2ncc3ccc(-c4ccccc4OC)n3n2)cc(OC)c1` [Example 158, (3,5-Dimethoxy-phenyl)-[7-(2-methoxy-phenyl)-pyrrolo[2,1-f][1,2,4]triazin-2-yl]-amine], the values for the pIC50 in experiment [1] (ALK Kinase Inhibition) and in experiment [2] (JAK2 Kinase Inhibition) were 6.00 to 7.00 and more than 7.00, respectively.
In the case of `CCOC(=O)c1ccccc1-c1ccc2cnc(Nc3ccc(N4CCN(C)CC4)cc3)nn12` [Example 1146, 2-{2-[4-(4-Methyl-piperazin-1-yl)-phenylamino]-pyrrolo[2,1-f][1,2,4]triazin-7-yl}-benzoic acid ethyl ester], the values for the pIC50 in experiment [1] (setting [3]) and in experiment [2] (setting [4]) were 6.00 to 7.00 and more than 7.00, respectively.
With `CC(C)(C)NS(=O)(=O)c1cccc(-c2ccc3cnc(Nc4ccc5c(c4)NC(=O)C(C)(C)O5)nn23)c1` [Example 1376, N-tert-Butyl-3-[2-(2,2-dimethyl-3-oxo-3,4-dihydro-2H-1,4-benzoxazin-6-ylamino)-pyrrolo[2,1-f][1,2,4]triazin-7-yl]-benzenesulfonamide], the pIC50 in experiment [1] (ALK Kinase Inhibition) was 5.00 to 6.00; in experiment [2] (JAK2 Kinase Inhibition) it was more than 7.00.
Taken in the same sequence, the figures for `CS(=O)(=O)c1ccc(-c2ccc3cnc(Nc4cccc(N5CCOCC5)c4)nn23)cc1` [Example 163, [7-(4-Methanesulfonyl-phenyl)-pyrrolo[2,1-f][1,2,4]triazin-2-yl]-(3-morpholin-4-yl-phenyl)-amine] were 5.00 to 6.00 and more than 7.00.
With `COc1ccccc1-c1ccc2cnc(Nc3ccc(C4CCN(CC(N)=O)CC4)cc3)nn12` [Example 660, 2-(4-{4-[7-(2-Methoxy-phenyl)-pyrrolo[2,1-f][1,2,4]triazin-2-ylamino]-phenyl}-piperidin-1-yl)-acetamide], the pIC50 in experiment [1] (setting [3]) and in experiment [2] (setting [4]) was more than 7.00 in each case.
For the compound `CN1CCN(c2ccc(Nc3ncc4ccc(-c5ccccc5N(C)S(C)(=O)=O)n4n3)nc2)CC1` [Example 1197, N-Methyl-N-(2-{2-[5-(4-methyl-piperazin-1-yl)-pyridin-2-ylamino]-pyrrolo[2,1-f][1,2,4]triazin-7-yl}-phenyl)-methanesulfonamide], the pIC50 in experiment [1] (setting [3]) was 6.00 to 7.00; in experiment [2] (setting [4]) it was more than 7.00.
The matching figures for `CN1CCN(C)C(c2cccc(Nc3ncc4ccc(-c5cccc(S(=O)(=O)N6CCOCC6)c5)n4n3)c2)C1=O` (stereo not shown) [Example 1078, 1,4-Dimethyl-3-(3-{7-[3-(morpholine-4-sulfonyl)-phenyl]-pyrrolo[2,1-f][1,2,4]triazin-2-ylamino}-phenyl)-piperazin-2-one]: less than 5.00 and more than 7.00.
Taken in the same sequence, the figures for `COc1cc(N2CCC(N3CCOCC3)CC2)ccc1Nc1ncc2ccc(-c3ccccc3[S+](C)[O-])n2n1` (stereo not shown) [Example 544, [7-(2-Methanesulfinyl-phenyl)-pyrrolo[2,1-f][1,2,4]triazin-2-yl]-[2-methoxy-4-(4-morpholin-4-yl-piperidin-1-yl)-phenyl]-amine] were 6.00 to 7.00 and 6.00 to 7.00.
The matching figures for `CN(C)S(=O)(=O)c1cccc(Nc2ncc3ccc(-c4cccc(S(=O)(=O)NC(C)(C)C)c4)n3n2)c1` [Example 592, 3-({7-[3-(tert-butylsulfamoyl)phenyl]pyrrolo[2,1-f][1,2,4]triazin-2-yl}amino)-N,N-dimethylbenzenesulfonamide]: 5.00 to 6.00 and more than 7.00.
In the case of `COc1cc2c(cc1Nc1ncc3ccc(-c4ccccc4OC)n3n1)CN(C1COC1)C2` [Example 850, (6-Methoxy-2-oxetan-3-yl-2,3-dihydro-1H-isoindol-5-yl)-[7-(2-methoxy-phenyl)-pyrrolo[2,1-f][1,2,4]triazin-2-yl]-amine], the pIC50 in experiment [1] (setting [3]) and in experiment [2] (setting [4]) was more than 7.00 in each case.
Turning to `COCCOc1ccccc1-c1ccc2cnc(Nc3ccc(C4CCN(CC(N)=O)CC4)cc3OC)nn12` [Example 1271, 2-[4-(3-Methoxy-4-{7-[2-(2-methoxy-ethoxy)-phenyl]-pyrrolo[2,1-f][1,2,4]triazin-2-ylamino}-phenyl)-piperidin-1-yl]-acetamide], the pIC50 in experiment [1] (setting [3]) was 6.00 to 7.00; in experiment [2] (setting [4]), 5.00 to 6.00.

The values are drawn from patent publication US8471005B2 (Cephalon, Inc., priority 2008, dated 2013).
